The text below walks through data of patent publication US20050143336A1 (priority 2003, published 2005).

The test system of experiment [1] is C3H mice. The experiment is described as follows: Survival of mice given p38MAPK or pJNK inhibitor before FUS1-nanoparticles. It is filed as in vivo. The protocol:
The amount of FUS1 plasmid DNA delivered was 100 μg. Animals were injected intravenously with FUS1-nanoparticles and animal survival monitored for 25 days.

In experiment [2] the test system is p44/42 MAPK. The conditions noted are these: MRC-9 cells, 10, 30 μM prior to FUS1-nanoparticles. The procedure: In vitro experiments. To determine the effect of FUS1-nanoparticles on the activation of signaling molecules associated with inflammation, MRC-9 fibroblast cells were seeded in six-well plates (5×10^5 cells/well) and incubated overnight at 37° C. and 5% CO2. […] Two-three hours after treatment, cells were transfected with FUS1-nanoparticles (2.5 μg DNA) in 0.2% serum medium. Cells were harvested at different time-points (2 h, 4 h, 15 h) after transfection, washed, and cell lysates prepared as previously described (Ramesh et al., 2001a). Untransfected cells treated with PBS served as control in these experiments. Cell lysates were subjected to western blotting analysis and probed with various antibodies as previously described (Ramesh et al., 2001b; Ito et al., 2003). In all the experiments, β-actin was detected using anti-β-actin antibody (Sigma Chemicals, St. Louis, Mo.) as a measure of internal loading control.

Where [3] appears, read: inhibitor 15 mg/kg intraperitoneally 24 h and 3 h prior to FUS1-nanoparticles (100 μg DNA) i.v., monitored 25 days.

For the compound `C[S+]([O-])c1ccc(-c2nc(-c3ccncc3)c(-c3ccc(F)cc3)[nH]2)cc1` (stereo not shown) [SB 203580], the survival in experiment [1] (setting [3]) is on record as 100%; in experiment [1] (two i.p. doses at 24 h and 3 h before complex), “Prolonged survival”.
On to `N#CC(=C(/N)Sc1ccccc1N)/C(C#N)=C(\N)Sc1ccccc1N` [U0126], for which, in experiment [2], the “p44/42 MAPK expression and downstream substrates” value is given as “significant inhibition”.
Consider `O=C1c2ccccc2-c2n[nH]c3cccc1c23` [pJNK inhibitor], for which the survival in experiment [1] (setting [3]) is recorded as 33%.
